Results published in ChEMBL document CHEMBL1142023, “Structure-activity relationships of dimeric PPAR agonists” (Bioorg Med Chem Lett, 2005).

Tests used:
[1] = molecular target: T1, Peroxisome proliferator-activated receptor alpha (Homo sapiens, UniProt Q07869); test: Effective concentration for human peroxisome proliferator-activated receptor alpha
T1 sequence (Q07869 whole entry): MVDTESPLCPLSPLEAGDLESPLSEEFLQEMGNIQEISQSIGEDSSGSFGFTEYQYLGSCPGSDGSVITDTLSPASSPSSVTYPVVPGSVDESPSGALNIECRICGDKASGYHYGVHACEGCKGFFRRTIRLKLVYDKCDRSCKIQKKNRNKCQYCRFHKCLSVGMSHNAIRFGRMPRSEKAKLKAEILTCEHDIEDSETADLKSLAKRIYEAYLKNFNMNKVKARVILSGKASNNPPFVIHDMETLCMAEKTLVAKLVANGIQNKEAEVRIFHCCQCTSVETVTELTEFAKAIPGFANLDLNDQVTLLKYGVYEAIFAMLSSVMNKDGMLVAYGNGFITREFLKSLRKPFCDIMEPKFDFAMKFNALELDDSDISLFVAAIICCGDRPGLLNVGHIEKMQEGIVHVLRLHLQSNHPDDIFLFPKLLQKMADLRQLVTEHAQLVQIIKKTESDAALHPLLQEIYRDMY

[2] = molecular target: T2, Peroxisome proliferator-activated receptor delta (Homo sapiens, UniProt Q03181); test: Effective concentration for human peroxisome proliferator-activated receptor delta
T2 sequence (Q03181 whole entry): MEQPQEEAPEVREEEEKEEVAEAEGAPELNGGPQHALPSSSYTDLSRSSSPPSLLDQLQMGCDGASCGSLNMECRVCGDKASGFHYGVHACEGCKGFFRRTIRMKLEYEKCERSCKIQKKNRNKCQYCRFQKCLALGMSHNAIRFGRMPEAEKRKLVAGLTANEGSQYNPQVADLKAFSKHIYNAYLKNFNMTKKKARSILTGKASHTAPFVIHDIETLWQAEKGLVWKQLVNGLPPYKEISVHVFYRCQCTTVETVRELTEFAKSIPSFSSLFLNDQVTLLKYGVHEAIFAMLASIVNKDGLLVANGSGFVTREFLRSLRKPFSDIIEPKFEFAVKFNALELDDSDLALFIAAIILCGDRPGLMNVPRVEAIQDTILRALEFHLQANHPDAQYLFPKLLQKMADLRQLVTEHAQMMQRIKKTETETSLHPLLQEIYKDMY

| EC50 [1] | EC50 [2] | Compound |
| --- | --- | --- |
| 15000 nM | – | CCO[C@@H](Cc1ccc(OCc2ccc(COc3ccc(C[C@H](OCC)C(=O)O)cc3)cc2)cc1)C(=O)O |
| 70 nM | 6900 nM | CCO[C@H](Cc1ccc(OC/C=C/C#Cc2ccccc2)cc1)C(=O)O |
| 1800 nM | 4100 nM | CCO[C@H](Cc1ccc(OC/C=C(/C)C#Cc2ccc(-c3ccc(C#C/C(C)=C/COc4ccc(C[C@@H](OCC)C(=O)O)cc4)cc3)cc2)cc1)C(=O)O |
| 6700 nM | 2100 nM | CCO[C@H](Cc1ccc(OC/C=C(\C)c2ccc(-c3ccc(/C(C)=C/COc4ccc(C[C@@H](OCC)C(=O)O)cc4)cc3)cc2)cc1)C(=O)O |
| 300 nM | 11000 nM | CCO[C@@H](Cc1ccc(OC/C=C(/C)C#Cc2ccccc2)cc1)C(=O)O |
| 1600 nM | 18000 nM | CCOC(Cc1ccc(OC/C=C/c2ccccc2)cc1)C(=O)O (single isomer, unassigned) |
| 700 nM | 2200 nM | CCOC(Cc1ccc(OC/C=C/C#Cc2ccc(C#C/C=C/COc3ccc(C[C@@H](OCC)C(=O)O)cc3)cc2)cc1)C(=O)O (single isomer, unassigned) |
| 3700 nM | 15000 nM | CCOC(Cc1ccc(OC/C=C/C#CC#C/C=C/COc2ccc(C[C@@H](OCC)C(=O)O)cc2)cc1)C(=O)O (single isomer, unassigned) |
| 9600 nM | – | CCOC(Cc1ccc(OCC#CCOc2ccc(C[C@@H](OCC)C(=O)O)cc2)cc1)C(=O)O (single isomer, unassigned) |
| 1200 nM | 1800 nM | CCOC(Cc1ccc(OC/C=C(\C)C#Cc2ccc(C#C/C(C)=C/COc3ccc(C[C@@H](OCC)C(=O)O)cc3)cc2)cc1)C(=O)O (single isomer, unassigned) |
| 1100 nM | 19000 nM | CCOC(Cc1ccc(OCC/C=C/c2ccccc2)cc1)C(=O)O (single isomer, unassigned) |
| 2300 nM | – | CCO[C@H](Cc1ccc(OC/C=C(\C)C#Cc2ccc3c(c2)C(=O)c2cc(C#C/C(C)=C/COc4ccc(C[C@@H](OCC)C(=O)O)cc4)ccc2-3)cc1)C(=O)O (stereo in doubt) |
